Reference: patent US20140314844A1, “ORAL COMPLEX FORMULATION COMPRISING OMEGA-3 FATTY ACID AND HMG-COA REDUCTASE INHIBITOR WITH IMPROVED STABILITY” (HANMI PHARM. CO., LTD, priority 2011, published 2014)

Experiment: Suitability test between capsule ingredients and rosuvastatin calcium (heating, HPLC of related material RRT 0.72)
Format: physicochemical
Conditions: rosuvastatin 50 mg mixed with 100 mg capsule ingredient, heated at 100° C. for 2 hours, FIG. 1
Procedure: In order to evaluate interaction between the ingredients of a soft or hard capsule and statins, the following test was performed.
Specifically, gelatin (grade: 165 bloom, Geltech, Korea) which is a main ingredient of capsule; glycerol, propylene glycol and polyethylene glycol (PEG400), which are often used as a plasticizer; and sorbitol sorbitan solution (ROQUETTE, France, NF grade, containing solid content of 27.5 wt % of sorbitan and 34.4 wt % of sorbitol) were examined to evaluate the interaction with rosuvastatin calcium. In accordance with the ingredients described in Table 1, all ingredients were mixed, heated at 100° C. for 2 hours, and then evaluated by HPLC analysis.
HPLC analysis was performed using a stainless steel column of approximately 250 mm length, packed with 5 μm C18 or a similar column (Inertsil-ODS2, GL sciences) with a mobile phase of water:acetonitrile:1%(v/v) trifluoroacetic acid solution (62:37:1 (v/v)) at flow rate of 0.75 mL/min. The peak of related material as compared to the major peak of rosuvastatin, was analyzed quantitatively.

production of related material RRT 0.72: excluding
Compound: CC(C)c1nc(N(C)S(C)(=O)=O)nc(-c2ccc(F)cc2)c1/C=C/[C@@H](O)C[C@@H](O)CC(=O)[O-].CC(C)c1nc(N(C)S(C)(=O)=O)nc(-c2ccc(F)cc2)c1/C=C/[C@@H](O)C[C@@H](O)CC(=O)[O-].[Ca+2] [Ref. Ex. 1, rosuvastatin calcium]
